Measured values published in publication PMC6787163, “Systematic Dual Targeting of Dendritic Cell C-Type Lectin Receptor DC-SIGN and TLR7 Using a Trifunctional Mannosylated Antigen” (Frontiers in Chemistry, 2019).
“And” between values parts separate entries of the source, which are not always exact repeats. Equal values may be shown once.

Assays:
DC-SIGN ECD = molecular target: T1, DC-SIGN ECD (Homo sapiens, UniProt Q9NNX6); assay: SPR competition (inhibition) assay, DC-SIGN ECD on BSA-mannotriose surface; assay type: binding; settings: DC-SIGN ECD 20 μM
T1 construct: The ECD of DC-SIGN (residues 66–404) was overexpressed and purified as previously described; made in house
T1 sequence (Q9NNX6 66-404): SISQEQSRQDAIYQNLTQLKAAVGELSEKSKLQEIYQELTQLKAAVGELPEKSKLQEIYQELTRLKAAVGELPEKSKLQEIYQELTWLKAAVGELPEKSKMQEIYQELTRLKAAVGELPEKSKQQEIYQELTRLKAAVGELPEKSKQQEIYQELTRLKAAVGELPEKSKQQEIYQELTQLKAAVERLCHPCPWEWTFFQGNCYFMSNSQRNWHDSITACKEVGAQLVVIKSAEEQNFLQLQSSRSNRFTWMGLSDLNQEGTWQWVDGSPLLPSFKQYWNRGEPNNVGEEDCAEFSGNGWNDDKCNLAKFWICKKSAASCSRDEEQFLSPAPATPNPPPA
Method: (§1) The affinity of the clusters for the extracellular domain (ECD) of the DC-SIGN receptor (DC-SIGN ECD) was estimated via surface plasmon resonance (SPR) assays (Tabarani et al., [2009]). The apparent Kd was calculated in direct interaction mode using a surface functionalized in an oriented manner with DC-SIGN ECD. In this assay, tetrameric DC-SIGN ECD is attached to the surface of the sensor chip via the N-terminus of its neck oligomerization domain, thus presenting its four carbohydrate recognition domains toward the solvent, realistically mimicking the presentation of the receptor on cell surface (Porkolab et al., [2019]). For some of the low affinity ligands, in the mM range, it was not possible to determine their affinity with this assay, and therefore a competition experiment was performed providing IC50 values (Timpano et al., [2008]) (Figure 3A). […] When comparing equivalent clusters, the α1,2-di-mannoside (B series) bound with the highest affinity (Figure 3A). […] A potential explanation for this effect could be that the spacing of clusters is more important for the larger tri-mannosides.
The ECD of DC-SIGN (residues 66–404) was overexpressed and purified as previously described (Tabarani et al., [2009]). The DC-SIGN S-ECD construct used for direct interaction experiment (see below) has been overexpressed and purified as described elsewhere (Porkolab et al., [2019]). The SPR competition experiments were performed on a BIAcore T200 using a CM3 series S sensor chip. Flow cells were activated as previously described (Halary et al., [2002]). Flow cell 1 was functionalized with BSA, blocked with ethanolamine and subsequently used as a control surface. Flow cells 2 and 3 were treated with BSA-Man α1-3[Manα1-6]Man (Dextra) (60 μg/mL) in 10 mM NaOAc pH 4 and blocked with ethanolamine. The final densities on flow cells 2 and 3 were about 2,100 RU. The affinities of the various compounds for DC-SIGN ECD were evaluated via an established inhibition assay (Andreini et al., [2011]) in which DCSIGN ECD was injected at 20 μM alone or in the presence of increasing concentration of inhibitors. Injections were performed at 5 μL/min using 25 mM Tris-HCl pH 8, 150 mM NaCl, 4 mM CaCl2, 0.05% P20 surfactant as running buffer. The surface was regenerated by the injection of 50 mM EDTA. The data was analyzed in BIAcore BIAevaluation software using four parameter equation.

DC-SIGN S-ECD = molecular target: T2, DC-SIGN S-ECD (Homo sapiens, UniProt Q9NNX6); assay: SPR direct interaction assay on oriented DC-SIGN S-ECD surface; assay type: binding; settings: SPR direct interaction, oriented tetrameric DC-SIGN ECD surface, apparent Kd; read-out: Kdapp
T2 construct: The ECD of DC-SIGN (residues 66–404) was overexpressed and purified as previously described; made in house
T2 sequence (Q9NNX6 66-404): T1 sequence (Q9NNX6 66-404)
Method: as §1
The direct interaction experiments were executed on a T200 Biacore with a CM3 series S sensor chip. Contrary to the competition assay described above, in this test, DC-SIGN ECD used harbors a StreptagII in its N-terminus (DC-SIGN S-ECD) to allow its capture and functionalization onto the surface in an oriented manner. Flow cells were functionalized as previously described (Porkolab et al., [2019]). Briefly, after EDC/NHS activation, flow cells were functionalized with streptactin protein in a first step. Flow cell 1 was used as control, while other flow cells were, in a second round of activation, functionalized with 100 μg/mL of a DC-SIGN S-ECD up to a final density ranging between 2,500 and 3,000 RU, via tag specific capture and linkage by amine coupling chemistry simultaneously. The compounds were injected in running buffer of 25 mM Tris pH 8, 150 mM NaCl, 4 mM CaCl2, 0.05% Tween 20 onto the surface at increasing concentrations with a flow rate of 30 μL/min. The ligand titration led to the determination of an apparent Kd value. The data was analyzed in BIAcore BIAevaluation software for direct interaction 1:1 calculation assuming that the Kd will reflect the affinity of the ligands (glycoclusters) for the DC-SIGN oriented surface used as a whole.

moDCs = assay: Internalization of biotinylated hexavalent clusters by moDCs (flow cytometry); assay type: cell-based, human
Method: For the internalization, the moDCs were incubated with clusters b6, c6, d6, and e6 for 1 h at 4°C, where after unbound ligands were washed away with ice-cold medium. Warm medium was added to the moDCs, and samples were taken at the indicated time points and put on ice. Upon staining the moDCs with fluorophore-conjugated streptavidin, we could measure the signal loss of the membrane via flow cytometry. To exclude ligand-receptor dissociation before internalization, the moDCs were fixed under gentle conditions, hereby inhibiting receptor-mediated endocytosis. On fixed moDCs the clusters remained at the surface, as no signal loss could be detected (Supplementary Figure 1D). […] The di-mannoside clusters (b6, c6, and d6) were internalized relatively fast, with a 50% uptake within 5 min (Figure 5B). The tri-mannoside cluster e6 however remained longer at the membrane surface and only a 25% uptake was seen after 30 min. Similar results were seen using a pH-sensitive fluorophore. In acidic environments, such as the endosomes and lysosomes, the fluorescence of this dye increases. Pre-complexed clusters mirrored the accelerated uptake of the di-mannoside clusters over the e6 cluster (Supplementary Figure 1E). Although the DC-SIGN mediated uptake mechanism is known (Cambi et al., [2009]), the initiation trigger for endocytosis upon DC-SIGN-ligand binding remains unclear. Recognition of the di-mannoside clusters could induce signaling leading to accelerated uptake, whereas the tri-mannoside cluster could trigger a different signaling pathway. Nonetheless, the clusters harboring the smaller mannosides are preferred. Although the binding affinity of the clusters ranged from 0.9 to 6.6 μM, the di-mannosides induce more rapid DC-SIGN internalization over the tri-mannosides, and can thus increase intracellular peptide concentrations more efficiently for further antigen processing and presentation.
Immature day 5 moDCs were harvested and washed with cold HBSS (Thermo Fischer), after which half of the moDCs were gently fixed for 20 min at RT with 1% PFA in PBS. Afterwards, 20 μM of the different biotinylated mannose-clusters in cold HBSS were added. The moDCs were incubated for 1 h on ice, and washed in cold HBSS. Subsequently, warm HBSS was added to the cells, and cells were incubated at 37°C in a shaking heating block. At the indicated time points, a sample of the cells was taken and put on ice. After the last time point, the cells were stained with Streptavidin-Alexa647 (Thermo Fisher), measured using flow cytometry (CyAn™ ADP with Summit™ Software), and further analyzed using FlowJo v10. The same procedure was used for internalization with pHrodo^TM Red Avidin (Thermo Fischer). The different biotinylated mannose-clusters were however incubated with pHrodo-Avidin (ratio 2:1) for 15 min at 37°C, prior to moDC exposure. The fluorescence upon internalization was measured using flow cytometry (BD LSRFortessa™ X-20 with FACSDiva Software), and further analyzed using FlowJo v10.

IC50 (DC-SIGN ECD)	SMILES	further results
6960 ± 3040 µM	CC(=O)N[C@@H](CCCCn1cc(CO[C@H]2O[C@H](CO[C@H]3O[C@H](CO)[C@@H](O)[C@H](O)[C@@H]3O)[C@@H](O)[C@H](O)[C@@H]2O)nn1)C(=O)NCC(=O)N[C@@H](CCCCN)C(N)=O [D1]	
171.9 ± 1.45 µM	CC(=O)N[C@@H](CCCCn1cc(CO[C@H]2O[C@H](CO)[C@@H](O)[C@H](O[C@H]3O[C@H](CO)[C@@H](O)[C@H](O)[C@@H]3O)[C@@H]2O)nn1)C(=O)NCC(=O)N[C@@H](CCCCn1cc(CO[C@H]2O[C@H](CO)[C@@H](O)[C@H](O[C@H]3O[C@H](CO)[C@@H](O)[C@H](O)[C@@H]3O)[C@@H]2O)nn1)C(=O)NCC(=O)N[C@@H](CCCCn1cc(CO[C@H]2O[C@H](CO)[C@@H](O)[C@H](O[C@H]3O[C@H](CO)[C@@H](O)[C@H](O)[C@@H]3O)[C@@H]2O)nn1)C(=O)NCC(=O)N[C@@H](CCCCN)C(N)=O [C3]	
410.9 ± 0.3 µM	CC(=O)N[C@@H](CCCCn1cc(CO[C@H]2O[C@H](CO[C@H]3O[C@H](CO)[C@@H](O)[C@H](O)[C@@H]3O)[C@@H](O)[C@H](O)[C@@H]2O)nn1)C(=O)NCC(=O)N[C@@H](CCCCn1cc(CO[C@H]2O[C@H](CO[C@H]3O[C@H](CO)[C@@H](O)[C@H](O)[C@@H]3O)[C@@H](O)[C@H](O)[C@@H]2O)nn1)C(=O)NCC(=O)N[C@@H](CCCCN)C(N)=O [D2]	
567.4 ± 1.15 µM	CC(=O)N[C@@H](CCCCn1cc(CO[C@H]2O[C@H](CO)[C@@H](O)[C@H](O[C@H]3O[C@H](CO)[C@@H](O)[C@H](O)[C@@H]3O)[C@@H]2O)nn1)C(=O)NCC(=O)N[C@@H](CCCCn1cc(CO[C@H]2O[C@H](CO)[C@@H](O)[C@H](O[C@H]3O[C@H](CO)[C@@H](O)[C@H](O)[C@@H]3O)[C@@H]2O)nn1)C(=O)NCC(=O)N[C@@H](CCCCN)C(N)=O [C2]	
2600 ± 95 µM	CC(=O)N[C@@H](CCCCn1cc(CO[C@H]2O[C@H](CO)[C@@H](O)[C@H](O)[C@@H]2O)nn1)C(=O)NCC(=O)N[C@@H](CCCCn1cc(CO[C@H]2O[C@H](CO)[C@@H](O)[C@H](O)[C@@H]2O)nn1)C(=O)NCC(=O)N[C@@H](CCCCN)C(N)=O [A2]	
306 ± 4.75 µM	CC(=O)N[C@@H](CCCCn1cc(CO[C@H]2O[C@H](CO[C@H]3O[C@H](CO)[C@@H](O)[C@H](O)[C@@H]3O)[C@@H](O)[C@H](O[C@H]3O[C@H](CO)[C@@H](O)[C@H](O)[C@@H]3O)[C@@H]2O)nn1)C(=O)NCC(=O)N[C@@H](CCCCn1cc(CO[C@H]2O[C@H](CO[C@H]3O[C@H](CO)[C@@H](O)[C@H](O)[C@@H]3O)[C@@H](O)[C@H](O[C@H]3O[C@H](CO)[C@@H](O)[C@H](O)[C@@H]3O)[C@@H]2O)nn1)C(=O)NCC(=O)N[C@@H](CCCCN)C(N)=O [E2]	
1520 ± 250 µM	CC(=O)N[C@@H](CCCCn1cc(CO[C@H]2O[C@H](CO[C@H]3O[C@H](CO)[C@@H](O)[C@H](O)[C@@H]3O)[C@@H](O)[C@H](O[C@H]3O[C@H](CO)[C@@H](O)[C@H](O)[C@@H]3O)[C@@H]2O)nn1)C(=O)NCC(=O)N[C@@H](CCCCN)C(N)=O [E1]	
189 ± 3.45 µM	CC(=O)N[C@@H](CCCCn1cc(CO[C@H]2O[C@H](CO)[C@@H](O)[C@H](O)[C@@H]2O[C@H]2O[C@H](CO)[C@@H](O)[C@H](O)[C@@H]2O)nn1)C(=O)NCC(=O)N[C@@H](CCCCn1cc(CO[C@H]2O[C@H](CO)[C@@H](O)[C@H](O)[C@@H]2O[C@H]2O[C@H](CO)[C@@H](O)[C@H](O)[C@@H]2O)nn1)C(=O)NCC(=O)N[C@@H](CCCCN)C(N)=O [B2]	
736.7 ± 3.4 µM	CC(=O)N[C@@H](CCCCn1cc(CO[C@H]2O[C@H](CO)[C@@H](O)[C@H](O)[C@@H]2O)nn1)C(=O)NCC(=O)N[C@@H](CCCCn1cc(CO[C@H]2O[C@H](CO)[C@@H](O)[C@H](O)[C@@H]2O)nn1)C(=O)NCC(=O)N[C@@H](CCCCn1cc(CO[C@H]2O[C@H](CO)[C@@H](O)[C@H](O)[C@@H]2O)nn1)C(=O)NCC(=O)N[C@@H](CCCCN)C(N)=O [A3]	
	CC(=O)N[C@@H](CCCCn1cc(CO[C@H]2O[C@H](CO)[C@@H](O)[C@H](O)[C@@H]2O[C@H]2O[C@H](CO)[C@@H](O)[C@H](O)[C@@H]2O)nn1)C(=O)N[C@@H](CCCCn1cc(CO[C@H]2O[C@H](CO)[C@@H](O)[C@H](O)[C@@H]2O[C@H]2O[C@H](CO)[C@@H](O)[C@H](O)[C@@H]2O)nn1)C(=O)N[C@@H](CCCCn1cc(CO[C@H]2O[C@H](CO)[C@@H](O)[C@H](O)[C@@H]2O[C@H]2O[C@H](CO)[C@@H](O)[C@H](O)[C@@H]2O)nn1)C(=O)N[C@@H](CCCCn1cc(CO[C@H]2O[C@H](CO)[C@@H](O)[C@H](O)[C@@H]2O[C@H]2O[C@H](CO)[C@@H](O)[C@H](O)[C@@H]2O)nn1)C(=O)N[C@@H](CCCCn1cc(CO[C@H]2O[C@H](CO)[C@@H](O)[C@H](O)[C@@H]2O[C@H]2O[C@H](CO)[C@@H](O)[C@H](O)[C@@H]2O)nn1)C(=O)N[C@@H](CCCCn1cc(CO[C@H]2O[C@H](CO)[C@@H](O)[C@H](O)[C@@H]2O[C@H]2O[C@H](CO)[C@@H](O)[C@H](O)[C@@H]2O)nn1)C(=O)NCC(=O)N[C@@H](CCCCN)C(N)=O [B6]	Kd (DC-SIGN S-ECD): 0.95 µM and 0.946 µM and 0.9 µM; internalization by moDCs (loss of surface streptavidin signal) (moDCs; 20 μM cluster, live moDCs): rapidly internalized; internalization by moDCs (pHrodo-avidin fluorescence increase) (moDCs; clusters pre-complexed with pH-sensitive dye): internalized rapidly; uptake by immature moDCs (moDCs; within 5 min at 37°C, 20 μM cluster): 50%
